Laboratory results: ChEMBL document CHEMBL6092197, “Novel benzenesulfonamide-aroylhydrazone conjugates as carbonic anhydrase inhibitors that induce MAPK/ERK-mediated cell cycle arrest and mitochondrial-associated apoptosis in MCF-7 breast cancer cells” (Bioorg Med Chem, 2024)

Columns and labels:
[1] = Selectivity index, ratio of IC50 for human HaCaT cells to IC50 for human HeLa cells; format: toxicity; settings: HaCaT cells versus HeLa cells, read-out: Ratio IC50
Carbonic anhydrase 1 = Carbonic anhydrase 1 (Homo sapiens, UniProt P00915); test: Inhibition of human carbonic anhydrase I assessed as inhibition constant incubated for 15 mins by stopped flow CO2-hydrase assay
Carbonic anhydrase 2 = Carbonic anhydrase 2 (Homo sapiens, UniProt P00918); test: Inhibition of human carbonic anhydrase II assessed as inhibition constant incubated for 15 mins by stopped flow CO2-hydrase assay
MCF7 [2] = test: cells; settings: Homo sapiens, MCF7, 72 h
Description: Antiproliferative activity against human MCF7 cells assessed as reduction in cell proliferation incubated for 72 hrs by MTT assay

[3] = Selectivity index, ratio of IC50 for human HaCaT cells to IC50 for human MCF7 cells; format: toxicity; settings: HaCaT cells versus MCF7 cells, read-out: Ratio IC50
Carbonic anhydrase 9 = Carbonic anhydrase 9 (Homo sapiens, UniProt Q16790); test: Inhibition of human carbonic anhydrase IX assessed as inhibition constant incubated for 15 mins by stopped flow CO2-hydrase assay
[4] = Selectivity index, ratio of IC50 for human HaCaT cells to IC50 for human HCT-116 cells; format: toxicity; settings: HaCaT cells versus HCT-116 cells, read-out: Ratio IC50
in vitro = settings: human, HaCaT cells
Description: Cytotoxicity against human HaCaT cells assessed as reduction in cell proliferation incubated for 72 hrs by MTT assay

HCT-116 = test: cells; settings: Homo sapiens, HCT-116, 72 h
Description: Antiproliferative activity against human HCT-116 cells assessed as reduction in cell proliferation incubated for 72 hrs by MTT assay

Carbonic anhydrase 12 = Carbonic anhydrase 12 (Homo sapiens, UniProt O43570); test: Inhibition of human carbonic anhydrase XII assessed as inhibition constant incubated for 15 mins by stopped flow CO2-hydrase assay
HeLa = test: cells; settings: Homo sapiens, 72 h
Description: Antiproliferative activity against human HeLa cells assessed as reduction in cell proliferation incubated for 72 hrs by MTT assay

MCF7 [5] = test: Effect on apoptosis in human MCF7 cells assessed as fold decrease in apoptotic cells at 10 uM preincubated with U0126 for 1 hrs followed by compound addition and measured after 72 hrs by Annexin V-PE/7-AAD staining based flow cytometric analysis; format: functional
MCF7 [6] = test: Antiproliferative activity against human MCF7 cells assessed as reduction in cell proliferation incubated for 48 hrs by MTT assay; format: functional, cell-based; settings: MCF7, 48 h
MCF7 [7] = test: Inhibition of colony formation in human MCF7 cells assessed as reduction in colony formation at […] preincubated with compound for 24 hrs followed by replacement with DMEM medium and measured after 2 weeks by crystal violet staining based analysis relative to control; format: functional; settings: dose 2.5 µM
MCF7 [8] = test: Inhibition of colony formation in human MCF7 cells assessed as reduction in colony formation at 5 uM preincubated with compound for 24 hrs followed by replacement with DMEM medium and measured after 2 weeks by crystal violet staining based analysis relative to control; format: functional
MCF7 [9] = test: Induction of apoptosis in human MCF7 cells assessed as total apoptotic cells at 10 uM incubated for 72 hrs by Annexin V-PE/7-AAD staining based flow cytometric analysis relative to control; format: functional
MCF7 [10] = test: Induction of apoptosis in human MCF7 cells assessed as increase in caspase activity at 10 uM preincubated for 48 hrs followed by carboxyfluorescein-labeled fluoro-methyl ketone peptide addition and measured after 1 hrs by fluorescence based analysis relative to control; format: functional
MCF7 [11] = test: Antiproliferative activity against human MCF7 cells assessed as reduction in cell proliferation incubated for 24 hrs by MTT assay; format: functional, cell-based; settings: MCF7, 24 h

Chain of Carbonic anhydrase 1 (P00915 whole entry): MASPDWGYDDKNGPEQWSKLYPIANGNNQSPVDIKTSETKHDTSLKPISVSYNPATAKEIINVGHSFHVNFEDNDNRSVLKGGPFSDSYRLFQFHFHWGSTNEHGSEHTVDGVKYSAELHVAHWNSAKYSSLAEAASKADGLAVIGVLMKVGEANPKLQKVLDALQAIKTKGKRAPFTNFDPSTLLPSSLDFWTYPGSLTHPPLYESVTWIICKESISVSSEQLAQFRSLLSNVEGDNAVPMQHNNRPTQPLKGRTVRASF
Chain of Carbonic anhydrase 12 (O43570 whole entry): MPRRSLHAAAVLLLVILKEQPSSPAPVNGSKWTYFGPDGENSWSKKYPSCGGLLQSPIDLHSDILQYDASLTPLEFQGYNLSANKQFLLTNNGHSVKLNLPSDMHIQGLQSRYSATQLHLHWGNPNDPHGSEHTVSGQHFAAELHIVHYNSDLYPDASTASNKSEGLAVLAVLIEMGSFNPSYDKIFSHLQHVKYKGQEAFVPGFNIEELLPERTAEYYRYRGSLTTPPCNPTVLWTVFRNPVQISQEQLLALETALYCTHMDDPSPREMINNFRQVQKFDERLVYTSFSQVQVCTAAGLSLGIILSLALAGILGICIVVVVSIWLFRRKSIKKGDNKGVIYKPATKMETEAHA

Question: Which selectivity ratio [1] does the source give for `NS(=O)(=O)c1cc(C(=O)N/N=C/c2ccc(O)cc2O)c(SCc2ccc(F)cc2)cc1Cl` here?
Answer: 1.1

Question: What about the Ki (Carbonic anhydrase 1) of the same compound?
Answer: 0.0807 µM

Question: And the Ki (Carbonic anhydrase 2)?
Answer: 0.0561 µM

Question: And the IC50 (MCF7 [2])?
Answer: 25 µM

Question: What about the selectivity ratio [3] of the same compound?
Answer: 1.2

Question: And the Ki (Carbonic anhydrase 9)?
Answer: 0.0801 µM

Question: What about the selectivity ratio [4] of the same compound?
Answer: 2.9

Question: What about the IC50 at 72 h (in vitro) of the same compound?
Answer: 32 µM

Question: And the IC50 (HCT-116)?
Answer: 11.5 µM

Question: And the Ki (Carbonic anhydrase 12)?
Answer: 0.0803 µM

Question: What about the IC50 (HeLa) of the same compound?
Answer: 28 µM

Question: What does the source list for `NS(=O)(=O)c1cc(C(=O)N/N=C/c2ccc(O)cc2O)c(SCc2ccccc2)cc1Cl`?
Answer: selectivity ratio [1]: 2; Ki (Carbonic anhydrase 1): 0.144 µM; Ki (Carbonic anhydrase 2): 0.0491 µM; IC50 (MCF7 [2]): 22 µM; selectivity ratio [3]: 2.6; Ki (Carbonic anhydrase 9): 0.0581 µM; selectivity ratio [4]: 4.1; IC50 at 72 h (in vitro): 58 µM; IC50 (HCT-116): 14 µM; Ki (Carbonic anhydrase 12): 0.0568 µM; IC50 (HeLa): 29 µM

Question: For `NNC(=O)c1cc(S(N)(=O)=O)c(Cl)cc1SCc1ccc(F)cc1`, which selectivity ratio [1] is on record?
Answer: 1.8

Question: What about the IC50 (MCF7 [2]) of the same compound?
Answer: 24 µM

Question: And the selectivity ratio [3]?
Answer: 2.7

Question: What about the selectivity ratio [4] of the same compound?
Answer: 3.6

Question: What about the IC50 at 72 h (in vitro) of the same compound?
Answer: 65 µM

Question: What about the IC50 (HCT-116) of the same compound?
Answer: 18 µM

Question: And the IC50 (HeLa)?
Answer: 36 µM

Question: What does the source list for `NS(=O)(=O)c1cc(C(=O)N/N=C/c2ccc(Br)cc2O)c(SCc2ccccc2)cc1Cl`?
Answer: selectivity ratio [1]: 2; fold change (FC) (MCF7 [5]): 2; Ki (Carbonic anhydrase 1): 0.328 µM; Ki (Carbonic anhydrase 2): 0.0411 µM; IC50 (MCF7 [2]): 4 µM; selectivity ratio [3]: 8.2; Ki (Carbonic anhydrase 9): 0.0857 µM; IC50 (MCF7 [6]): 6 µM; inhibition at […] (MCF7 [7]): 80%; Ki (Carbonic anhydrase 12): 0.0822 µM; inhibition at 5 µM (MCF7 [8]): 85%; IC50 (HeLa): 16 µM; Activity (MCF7 [9]): 65%; Activity (MCF7 [10]): 30%; IC50 (MCF7 [11]): 98 µM

Question: For `NS(=O)(=O)c1cc(C(=O)N/N=C/c2ccc(Br)cc2O)c(SCc2ccc(F)cc2)cc1Cl`, which selectivity ratio [1] is on record?
Answer: 1.8

Question: What about the “fold change (FC)” value (MCF7 [5]) of the same compound?
Answer: 2.2

Question: What about the Ki (Carbonic anhydrase 1) of the same compound?
Answer: 0.537 µM

Question: And the Ki (Carbonic anhydrase 2)?
Answer: 0.646 µM

Question: And the IC50 (MCF7 [2])?
Answer: 6 µM

Question: What about the selectivity ratio [3] of the same compound?
Answer: 5.5

Question: And the Ki (Carbonic anhydrase 9)?
Answer: 0.852 µM

Question: And the selectivity ratio [4]?
Answer: 5.5

Question: And the IC50 at 72 h (in vitro)?
Answer: 33 µM

Question: What about the IC50 (HCT-116) of the same compound?
Answer: 6 µM

Question: What about the IC50 (MCF7 [6]) of the same compound?
Answer: 6 µM

Question: What about the inhibition at […] (MCF7 [7]) of the same compound?
Answer: 65%

Question: And the Ki (Carbonic anhydrase 12)?
Answer: 0.695 µM

Question: What about the inhibition at 5 µM (MCF7 [8]) of the same compound?
Answer: 80%

Question: And the IC50 (HeLa)?
Answer: 18 µM

Question: And the Activity (MCF7 [9])?
Answer: 60%

Question: And the Activity (MCF7 [10])?
Answer: 30%

Question: And the IC50 (MCF7 [11])?
Answer: 90 µM

Question: What does the source list for `NNC(=O)c1cc(S(N)(=O)=O)c(Cl)cc1SCc1ccccc1`?
Answer: IC50 (MCF7 [2]): 105 µM; IC50 (HCT-116): 155 µM; IC50 (HeLa): 350 µM
